According to US4181657A, “2-Aminooctahydroindolo[2,3-a]quinolizines useful in treating cardiovascular disorders” (Miles Laboratories, Inc., priority 1978, dated 1980):

What was measured:
Type in all cases: in vivo
[1] = test system: ventricular arrhythmia produced by chloroform; experiment: Antiarrhythmic activity: protection from chloroform-induced ventricular arrhythmia in mice (Lawson model); details: mouse; for Antiarrhythmic activity, ED50 symbol (failed screening dose) / mice protected of 5: 31 mg/kg i.p.; for Antiarrhythmic activity, ED50 symbol (failed screening dose): groups of 5 mice; for ED50: ip, 10 min, i.p., 10 min before chloroform, 95% confidence limits in parentheses, read-out: ED50 (95% C.L.)
Procedure: The antiarrhythmic activity of the compounds of this invention was determined in the experimental model described by J. W. Lawson (J. Pharmacol. Exper. Therap. 160:22-31, 1968). Test compounds were administered to groups of 5 mice at an intraperitoneal dose of 31 mg/kg. Ten minutes after injection each mouse was placed in a covered 300 ml glass beaker which contained cotton saturated with chloroform. The animal was observed closely and removed from the beaker immediately after respiratory arrest. The heart was quickly exposed by making an incision through the abdomen, diaphragm, thorax and pericardium for visual inspection of ventricular rate and rhythm. Ventricular contractions were counted for 30 seconds and animals with a rate not exceeding 100 beats per 30 seconds were considered protected from the ventricular arrhythmia produced by chloroform. Compounds protecting at least 3 of the 5 mice were subsequently tested at various doses and the results obtained were used to calculate the mean effective doses (ED50) and 95% confidence limits after the method of Litchfield and Wilcoxon (J. Pharmacol. Exper. Therap. 96:99-113, 1949). Table A presents the results obtained in the antiarrhythmic study.

dog heart in situ = experiment: Antianginal activity: aortic-coronary sinus difference in oxygen (myocardial oxygen consumption) in anesthetized dogs; details: 1 mg/kg i.v.; for antianginal activity (conclusion in words): based upon comparison with nitroglycerin, named compounds 'particularly'
Procedure: Angina pectoris is a clinical condition of hypoxia that results from an imbalance in myocardial oxygen supply and demand. A drug reducing oxygen demand is useful in the treatment of angina pectoris, as has been the case with nitroglycerin and the beta-adrenergic blocking agents like propranolol (J. R. Paratt, Advan. Drug Res. 9:103-134, 1974). Accordingly,the antianginal activity of 2-substituted indoloquinolizines was evaluated by assessing their capacity to reduce oxygen consumption by the dog heart in situ. This method allows measurement of the difference in oxygen content of the arterial and venous blood.
Mongrel dogs were anesthetized with pentobarbital and cannulas inserted in the trachea and in a femoral vein for artificial respiration with room air and for injection of test compounds, respectively. Heparin was administered intravenously to prevent blood clotting. The chest was opened at the sternal midline and an additional cannula introduced in the coronary sinus. Samples of blood were obtained from the coronary sinus cannula and from the thoracic aorta by direct puncture of the vessel. Partial pressure of oxygen in the samples was determined with a blood gas analyzer. Test compounds were injected intravenously at a dose of 1 mg/kg; oxygen measurements were made before administration and at 1, 5, 10, 20, 30, 40, 50 and 60 min after administration. One animal was used per test compound. As the standard of comparison, nitroglycerin was administered to a test animal and measurements were made in a similar manner.
Differences between partial pressure values in arterial and venous blood samples were calculated for each measurement. Since coronary sinus blood is representative of the venous effluent from the heart, these differences reflect the consumption of oxygen by the myocardium. Thus, the decrease in arteriovenous oxygen difference produced by the compounds by this invention indicates a reduction in myocardial oxygen consumption.

Systolic Blood Pressure = experiment: Antihypertensive activity: indirect systolic blood pressure in renal hypertensive rats; details: rat, 31 mg/kg p.o., * in table = statistically significant change from control
Procedure: Rats were made hypertensive by applying a figure of eight ligature to one kidney and removing the contralateral kidney two weeks later. At least four weeks after the second operation the animals were subjected to indirect systolic blood pressure measurements with an occluding cuff and pulse sensor system applied to the tail. Pressure measurements were made before and 1,2,4,6 and 8 hours after oral administration of the test compounds at a dose of 31 mg/kg. Each compound was tested in 5 or 10 rats. Statistical significance of differences between control and post treatment values was determined by Wilcoxon's signed rank test (F. Wilcoxon and R. A. Wilcox, Some Rapid Approximate Statistical Procedures, Lederle Laboratories, Pearl River, 1964).

Row | Structure (SMILES) | Antiarrhythmic activity, ED50 symbol (failed screening dose) [1] | Arterio-Venous Difference in Oxygen Partial Pressure at 1 min (dog heart in situ) [mmHg] | Arterio-Venous Difference in Oxygen Partial Pressure at 5 min (dog heart in situ) [mmHg] | Arterio-Venous Difference in Oxygen Partial Pressure at 10 min (dog heart in situ) [mmHg] | Arterio-Venous Difference in Oxygen Partial Pressure at 20 min (dog heart in situ) [mmHg] | Arterio-Venous Difference in Oxygen Partial Pressure at 30 min (dog heart in situ) [mmHg] | Arterio-Venous Difference in Oxygen Partial Pressure at 40 min (dog heart in situ) [mmHg] | Arterio-Venous Difference in Oxygen Partial Pressure at 50 min (dog heart in situ) [mmHg] | Arterio-Venous Difference in Oxygen Partial Pressure at 60 min (dog heart in situ) [mmHg] | Change in Systolic Blood Pressure at 1 hr (Systolic Blood Pressure) | Change in Systolic Blood Pressure at 2 hr (Systolic Blood Pressure) | Change in Systolic Blood Pressure at 4 hr (Systolic Blood Pressure) | Change in Systolic Blood Pressure at 6 hr (Systolic Blood Pressure) | Change in Systolic Blood Pressure at 8 hr (Systolic Blood Pressure) | antianginal activity (conclusion in words) (dog heart in situ) | ED50 [1] [mg/kg] | mice protected of 5 [1]
1 | CC(=O)Nc1ccc(NC2CCN3CCc4c(n(Cc5ccccc5)c5ccccc45)C3C2)cc1.Cl.Cl (centres unmarked) [TR3635, 2-(4-acetamidoanilino)-12-benzyl-1,2,3,4,6,7,12,12b-octahydroindolo-[2,3-a]quinolizine dihydrochloride] | * (Did not protect 3 of 5 mice and thus was not tested further.) | 24 | 24 | 24 | 23 | 24 | 26 | 25 | 26 | -23 mmHg | -23 mmHg | -27 mmHg | -16 mmHg | -10 mmHg |  |  | 
2 | CC(=O)Nc1cccc(NC2CCN3CCc4c(n(Cc5ccccc5)c5ccccc45)C3C2)c1.O=C(O)C(=O)O (centres unmarked) [TR3716, 2-(3-acetamidoanilino)-12-benzyl-1,2,3,4,6,7,12,12b-octahydroindolo[2,3-a]quinolizine oxalate] | * (Did not protect 3 of 5 mice and thus was not tested further.) | 22 | 27 | 29 | 28 | 27 | 28 | 28 | 28 | -49 mmHg | -42 mmHg |  | -17 mmHg | -6 mmHg |  |  | 
3 | COc1ccc(NC2CCN3CCc4c(n(Cc5ccccc5)c5ccccc45)C3C2)cc1.Cl.Cl (centres unmarked) [TR3006, 12-benzyl-2-(4-methoxyanilino)-1,2,3,4,6,7,12,12b-octahydroindolo[2,3-a]quinolizine dihydrochloride] | * (Did not protect 3 of 5 mice and thus was not tested further.) | 30 | 44 | 45 | 42 | 37 | 38 | 36 | 36 | -28 mmHg | -20 mmHg | -18 mmHg | -12 mmHg | -14 mmHg | antianginal activity is seen |  | 
4 | Brc1ccc(NC2CCN3CCc4c(n(Cc5ccccc5)c5ccccc45)C3C2)cc1.Cl.Cl (centres unmarked) [TR3631, 12-benzyl-2-(4-bromoanilino)-1,2,3,4,6,7,12,12b-octahydroindolo[2,3-a]quinolizine dihydrochloride] |  | 26 | 33 | 32 | 30 | 30 | 32 | 31 | 31 | +10 mmHg | -5 mmHg | +12 mmHg | +3 mmHg | 0 mmHg | antianginal activity is seen | 37 | at least 3 of 5 mice
5 | CC(C)NC1CCN2CCc3c(n(Cc4ccccc4)c4ccccc34)C2C1.Cl.Cl.O (centres unmarked) [TR3687, 12-benzyl-2-isopropylamino-1,2,3,4,6,7,12,12b-octahydroindolo[2,3-a]quinolizine dihydrochloride monohydrate] |  | 15 | 22 | 23 | 20 | 20 | 20 | 23 | 23 | -2 mmHg | +16 mmHg | +18 mmHg | +18 mmHg | +9 mmHg | antianginal activity is seen | 19 | at least 3 of 5 mice
6 | O=[N+]([O-])c1cccc(NC2CCN3CCc4c(n(Cc5ccccc5)c5ccccc45)C3C2)c1 (centres unmarked) [TR2998, 12-benzyl-2-(3-nitroanilino)-1,2,3,4,6,7,12,12b-octahydroindolo[2,3-a]quinolizine] |  | 12 | 16 | 18 | 17 | 18 | 17 | 19 | 20 | 0 mmHg | -2 mmHg | -4 mmHg | 0 mmHg | -4 mmHg | antianginal activity is seen | 12 | at least 3 of 5 mice
7 | O=[N+]([O-])OCC(CO[N+](=O)[O-])O[N+](=O)[O-] [Nitroglycerin, nitroglycerin, reference compound] |  | 13 | 21 | 20 | 20 | 21 | 21 | 18 | 20 |  |  |  |  |  |  |  | 
